In patent publication US20110206792A1, “COMPOSITIONS COMPRISING VITAMINS” (priority 2008, published 2011):

Test: Stability studies for Melatonin, Resveratrol and L-ascorbic acid in cosmetic serum (HPLC with diode array detection, 55 days)
Assay type: physicochemical
Settings: for concentration in the mixed formulation: formulation containing all three compounds, unchanged over 55 days; for change of concentration/percentage over 55 days: mixed versus single component formulation, 25° C. and 40° C.
Protocol: Stability studies for Melatonin, Resveratrol and L-ascorbic acid in cosmetic serum Object of this work was the studies related to the stability of Melatonin, Resveratrol and L-ascorbic acid when individually present in formulation in comparison with a formulation in which they are simultaneously mixed together, in order to explore the potential stabilization of L-ascorbic acid by Melatonin. The stability studies were performed at 25° C. (room temperature) and 40° C. (oven) for 55 days. Four formulations were analyzed: one mixture containing the three compounds together plus 3 formulations, which individually contained the three compounds. The excipients were all the same in the four formulations. The method employed to follow formulation stability is an HPLC method with diode array detection, under gradient conditions, as specified in the previous report. The results of these studies are shown in the graphs reported in FIGS. 10, 11 and 12 as well as in the following Tables 1, 2 and 3 where the percentages of the three compounds in the formulation (p/p) are plotted against time. In particular, the percentages were determined over 55 days, by comparison with reference standard compounds.

[1] = mix (three compounds together), T = 25° C., day 0
[2] = mix (three compounds together), T = 25° C., day 2
[3] = mix (three compounds together), T = 25° C., day 50
[4] = mix (three compounds together), T = 25° C., day 55
[5] = mix (three compounds together), T = 40° C., day 0
[6] = mix (three compounds together), T = 40° C., day 42
[7] = mix (three compounds together), T = 40° C., day 44
[8] = mix (three compounds together), T = 40° C., day 48
[9] = mix (three compounds together), T = 40° C., day 51
[10] = mix (three compounds together), T = 40° C., day 55
[11] = single component formulation, T = 25° C., day 0
[12] = single component formulation, T = 25° C., day 2
[13] = single component formulation, T = 25° C., day 44
[14] = single component formulation, T = 25° C., day 48
[15] = single component formulation, T = 25° C., day 50
[16] = single component formulation, T = 25° C., day 55
[17] = single component formulation, T = 40° C., day 0
[18] = single component formulation, T = 40° C., day 42
[19] = single component formulation, T = 40° C., day 48
[20] = single component formulation, T = 40° C., day 51
[21] = single component formulation, T = 40° C., day 55
[22] = mix (three compounds together), T = 25° C., day 44
[23] = mix (three compounds together), T = 25° C., day 48
[24] = single component formulation, T = 40° C., day 44

| concentration in the mixed formulation [%] | percentage of the compound in the formulation (p/p) [1] [%] | percentage of the compound in the formulation (p/p) [2] [%] | percentage of the compound in the formulation (p/p) [3] [%] | percentage of the compound in the formulation (p/p) [4] [%] | percentage of the compound in the formulation (p/p) [5] [%] | percentage of the compound in the formulation (p/p) [6] [%] | percentage of the compound in the formulation (p/p) [7] [%] | percentage of the compound in the formulation (p/p) [8] [%] | percentage of the compound in the formulation (p/p) [9] [%] | percentage of the compound in the formulation (p/p) [10] [%] | percentage of the compound in the formulation (p/p) [11] [%] | percentage of the compound in the formulation (p/p) [12] [%] | percentage of the compound in the formulation (p/p) [13] [%] | percentage of the compound in the formulation (p/p) [14] [%] | percentage of the compound in the formulation (p/p) [15] [%] | percentage of the compound in the formulation (p/p) [16] [%] | percentage of the compound in the formulation (p/p) [17] [%] | percentage of the compound in the formulation (p/p) [18] [%] | percentage of the compound in the formulation (p/p) [19] [%] | Structure (SMILES) | other results |
| --- | --- | --- | --- | --- | --- | --- | --- | --- | --- | --- | --- | --- | --- | --- | --- | --- | --- | --- | --- | --- | --- |
| 14.5 | 15.34 | 14.10 | 15.10 | 15.00 | 14.35 | 14.30 | 15.13 | 13.50 | 14.96 | 15.00 | 13.40 | 13.32 | 8.80 | 10.80 | 10.50 | 10.43 | 14.86 | 8.46 | 8.60 | O=C1O[C@H]([C@@H](O)CO)C(O)=C1O [L-ascorbic acid] | change in L-ascorbic acid concentration (formulation containing all the three ingredients, 55 days): no change; loss of L-ascorbic acid (single component formulation, 25° C., 55 days): 22%; loss of L-ascorbic acid (single component formulation, 40° C., 55 days): 36%; percentage of the compound in the formulation (p/p) [20]: 9.00%; percentage of the compound in the formulation (p/p) [21]: 9.60% |
| 0.20 | 0.20 | 0.20 | 0.14 | 0.16 | 0.20 | 0.18 | 0.18 | 0.20 | 0.16 | 0.18 | 0.22 | 0.19 | 0.17 | 0.20 | 0.17 | 0.17 | 0.22 | 0.16 | 0.18 | Oc1ccc(C=Cc2cc(O)cc(O)c2)cc1 [Resveratrol] | degradation (in 55 days, in all the conditions, formulations kept at 25° C. and 40° C.): approximately 10%; percentage of the compound in the formulation (p/p) [22]: 0.14%; percentage of the compound in the formulation (p/p) [23]: 0.20%; change of concentration/percentage over 55 days: does not change significantly; percentage of the compound in the formulation (p/p) (single component formulation, T = 40° C., day 2): 0.19%; percentage of the compound in the formulation (p/p) [24]: 0.20%; percentage of the compound in the formulation (p/p) [20]: 0.20%; percentage of the compound in the formulation (p/p) [21]: 0.20% |
| 0.20 | 0.20 | 0.25 | 0.23 | 0.20 | 0.18 | 0.17 | 0.18 | 0.14 | 0.18 | 0.20 | 0.28 | 0.33 | 0.30 | 0.26 | 0.31 | 0.30 | 0.26 | 0.25 | 0.29 | COc1ccc2[nH]cc(CCNC(C)=O)c2c1 [Melatonin] | percentage of the compound in the formulation (p/p) [22]: 0.20%; percentage of the compound in the formulation (p/p) [23]: 0.20%; change of concentration/percentage over 55 days: does not change much; concentration in the single component formulation (same concentration found after 55 days of storage at 25° C. and 40° C.): 0.28%; percentage of the compound in the formulation (p/p) [24]: 0.25%; percentage of the compound in the formulation (p/p) [20]: 0.29%; percentage of the compound in the formulation (p/p) [21]: 0.28% |
